Data set [1] relates to human conjunctival (WKD) and corneal (HCE) cells. As to the kind of experiment: Osmoprotective activity: cell viability (XTT assay) under hyperosmolar stress. It counts as cell-based. The following applies: Homo sapiens, HCE; for viability at 0.0005 % strength: 0.0005% w/v; for viability at 0.001 % strength: 0.001% w/v; for viability at 0.005 % strength: 0.005% w/v; for viability at 0.01 % strength: 0.01% w/v; for viability at 0.05 % strength: 0.05% w/v. The method, then:
(§1) A study was carried out to determine the osmoprotective capacity of sodium lipoate (A) during hyperosmolar stress on human conjunctival (WKD) and corneal (HCE) cells. The osmoprotective activity of A, then A with B and C, was evaluated by measuring cell viability in particular. To that end, cells were preincubated for 17 h with the test substance(s). Next, the medium was removed and the cells were subjected to hyperosmolar stress by addition of sodium chloride (100 mM NaCl) to the culture medium (M199 for the WKD cells and KSFM for the HCE cells). Cellgrowth control cells were contacted with isotonic medium. Cell viability was analyzed preosmotic stress (0 h) in order to measure the effect of the molecules remaining in contact with the cells during the 17 h of incubation, then at 4 h, 8 h and 24 h post-induction of osmotic stress. The cell viability measurement was carried out via an XTT assay. Various concentrations of A were tested for the “molecule alone” tests: 0.0005%, 0.001%, 0.005%, 0.01% and 0.05% w/v. For the molecule mixture tests, the following concentrations were tested: for A: 0.001%, 0.005%, and 0.01% w/v; for B: 0.25% w/v; and for C: 0.5% and 1% w/v. To ensure the validity and the significance of the data, the results obtained were analyzed statistically. The results presented below result from the mean of 3 independent repetitions, carried out on different days.

Test in data set [2]: as above
It counts as cell-based, human. The settings on record: human, 0 h (pre-osmotic stress, after 17 h preincubation). How it is done: as §1

Setting [3] is: 4 h post-induction of osmotic stress (100 mM NaCl).
Setting [4] is: 8 h post-induction of osmotic stress (100 mM NaCl).
Setting [5] is: 24 h post-induction of osmotic stress (100 mM NaCl).

This is an account of results in patent US10940206B2, “Ophthalmic composition comprising lipoic acid and a mucomimetic polymer” (OPHTALMIS MONACO, priority 2015, dated 2021).

In general, viability refers to a read-out of living cells in per cent, often relative to untreated cells.

Turning to `O=C(O)CCCCC1CCSS1` (centres unmarked) [sodium lipoate, 5-(1,2dithiolan-3-yl)pentanoic acid], in data set [1] (setting [3]), the viability at 0.0005 % strength turned out to be 62.7%, the viability at 0.001 % strength was determined as 69.6%, the viability at 0.005 % strength is 109% and the viability at 0.01 % strength was 120%. Further, the viability at 0.05 % strength in data set [1] (setting [3]) turned out to be 46%. Besides, in data set [1] (setting [4]), the viability at 0.0005 % strength stood at 38.5%, the viability at 0.001 % strength worked out at 42.4%, the viability at 0.005 % strength turned out to be 76.1% and the viability at 0.01 % strength came out at 82.9%. Besides, the viability at 0.05 % strength in data set [1] (setting [4]) came to 27.8%. Besides, in data set [1] (setting [5]), the viability at 0.0005 % strength is 18.8%, the viability at 0.001 % strength is 18.5%, the viability at 0.005 % strength came out at 12.6% and the viability at 0.01 % strength was 8.9%. The viability at 0.05 % strength in data set [1] (setting [5]) was determined as 2.7%. For the same compound, the viability at 17 h, 0.0005 % w/v in data set [2] (0.0005% w/v) is 99.9%. The viability at 17 h, 0.001 % w/v in data set [2] (0.001% w/v) was determined as 98.5%. The viability at 17 h, 0.005 % w/v in data set [2] (0.005% w/v) was determined as 103%. The viability at 17 h, 0.01 % w/v in data set [2] (0.01% w/v) amounted to 98.1%. In addition, the viability at 17 h, 0.05 % w/v in data set [2] (0.05% w/v) came out at 56.3%.
